What all share (format): cell-based, human
The test system of assay [1] is kidney injury molecule-1 (KIM-1). The assay can be described thus: Renal fibrosis-on-a-chip: KIM-1 ELISA of culture solution. Conditions: three renal fibrosis-on-chips (patients GFP >90, 60 to 90, <60), TGF-β 5 ng/ml alone or with TGF-β inhibitor 10 μM, 24 hours, FIG. 19. As to the method: An experiment was performed in the same manner as in Experimental Example 2, but enzyme-linked immunosorbent assay (ELISA assay) was performed to examine whether kidney injury molecule-1 (KIM-1) could be used as an evaluation index.
Specifically, renal fibroblasts obtained from each of three patients having GFP >90, GFP 60 to 90, and GFP <60 and purchased vascular endothelial cells (GFP-HUVEC) and renal tubular epithelial cells (HK-2 cells) were co-cultured in the vascular endothelial cell medium in the same manner as in Experimental Example 1 to manufacture three types of kidney-on-chips. Next, the medium was collected for each of the control group, TGF-β group, and TGF-β inhibition group of each of the three types of kidney-on-chips, the medium of each group was diluted at an appropriate ratio, and then ELISA analysis was performed according to the instructions of the KIM-1 (human) ELISA kit (Enzo Life Sciences, Inc, #ADI-900-226-0001). Afterwards, the result values for each group were measured at 450 nm using ELISA READER (SPECTRAMAX PLUS384), each measured result value was compared to the value for the control group of each of the three types of kidney-on-chips to comparatively analyze the difference in expression level of KIM-1, and the results are as illustrated in FIG. 19.
A general note: An ELISA detects its analyte on a solid surface through an enzyme-linked reagent.

For assay [2], the system named is vascular endothelial growth factor (VEGF). The assay can be described thus: Renal fibrosis-on-a-chip: VEGF real-time PCR. Conditions: two renal fibrosis-on-chips (patients GFP >90, 60 to 90), TGF-β 5 ng/ml alone or with TGF-β inhibitor 10 μM, 24 hours, FIG. 20. As to the method: An experiment was performed in the same manner as in Experimental Example 3-1, but real-time PCR was performed to examine whether the vascular endothelial growth factor (VEGF) can be used as an evaluation index.
Specifically, for each of the control group, TGF-β group, and TGF-β inhibition group of each of the two types of kidney-on-chips manufactured from a patient with GFP >90 and a patient with GFP 60 to 90 in Experimental Example 3-1, RNA was isolated from all of the renal tubular epithelial cells (HK-2 cells), fibroblasts, and vascular endothelial cells (GFP-HUVEC) co-cultured in each kidney-on-a-chip, cDNA was synthesized from this according to a method known in the art and mixed with VEGF primers and SYBER green, and the expression level of VEGF was measured using real-time PCR equipment (REAL TIME PCR SYSTEM, Applied Biosystems ViiA7). After measurement, the result values for each group measured using the equipment were compared to the values for the control group of each of the […] of kidney-on-chips to comparatively analyze the difference in expression level of VEGF, and the results are as illustrated in FIG. 20.
(In general: Real-time PCR tracks product formation cycle by cycle.)

For assay [3], the system named is vascular endothelial cells (GFP-HUVEC) in interstitium culture part. The assay can be described thus: Renal fibrosis-on-a-chip: degree of angiogenesis (length and diameter of blood vessels, ImageJ). As to conditions: 24 hours. As to the method: Through comparative analysis of an organ-on-a-chip mimicking normal kidney tissue and an organ-on-a-chip mimicking renal fibrosis, evaluation indices for screening for renal fibrosis therapeutic agents were deduced in the following manner. At this time, human-derived renal fibroblasts, vascular endothelial cells (GFP-HUVEC), and renal tubular epithelial cells were seeded in the kidney-on-a-chip (FIG. 12A) manufactured in Example 3 in the same manner as in A. of Example 3, and cultured to manufacture a kidney-on-a-chip. However, two types of renal fibroblasts of renal fibroblasts derived from normal kidney tissue (hereinafter referred to as normal kidney-on-a-chip) and renal fibroblasts derived from renal fibrosis kidney tissue (hereinafter referred to as renal fibrosis-on-a-chip) were used as the renal fibroblasts to manufacture two types of kidney-on-chips.
The two types of kidney-on-chips were divided into the control group (control in FIGS. 13A to 13D) in which each of the two types of kidney-on-chips was not treated with TGF-β and the TGF-β group (TGF β in FIGS. 13A to 13D) in which each of the two types of kidney-on-chips was treated with TGF-β unlike Example 3, and immunofluorescence staining was performed in the same manner as in B. of Example 3. At this time, the renal tubular epithelial cells in the renal tubule culture part of each kidney-on-a-chip were treated with CCK8 antibody and α-SMA antibody, respectively, their fluorescence expression was photographed using a confocal microscope (MICROSCOPE CONFOCAL LASER SCANNING ZEISS LSM 710), the mean fluorescence intensity of each image was measured using the analysis program of the confocal microscope, then the result values of CCK8 and α-SMA measured for each group were compared to the values for the control group (control) to comparatively analyze the difference in expression levels, and the results are as illustrated in FIGS. 13A to 13D.
It is more reasonable to compare the kidney-on-a-chip of Example 3 to the pathological tissue of a patient from which kidney cells were obtained rather than comparing the kidney-on-a-chip to a laboratory animal model of renal fibrosis, so the evaluation indices for screening for renal fibrosis therapeutic agents were deduced by manufacturing a kidney-on-a-chip and performing comparative analysis in the same manner as in Experimental Example 1. […] In this experiment, three types of kidney-on-chips were manufactured: the control group (control in FIGS. 15 to 20) not treated with TGF-β, the TGF-β group (TGF β in FIGS. 15 to 20) treated with TGF-β in Experimental Example 1, and a TGF-β inhibition group (TGF β inhibitor in FIGS. 15 to 20) that was treated with TGF-β at 5 ng/ml and a TGF-β inhibitor at 10 μM and reacted for 24 hours.
For the three types of kidney-on-chips of the control group, the TGF-β group, and the TGF-β inhibition group, vascular endothelial cells (GFP-HUVEC) present in the vascular endothelial cell region of the interstitium culture part were photographed using a confocal microscope (MICROSCOPE CONFOCAL LASER SCANNING ZEISS LSM 710). […] The result values measured for each of the control group, TGF-β group, and TGF-β inhibition group were compared to the values for the control group according to each index to comparatively analyze the length and diameter of thin blood vessels and the length and diameter of thick blood vessels, and the results are as illustrated in FIGS. 17 to 18.

Assay [4] has as its system normal kidney-on-a-chip (renal tubular epithelial cells (HK-2 cells), renal fibroblasts derived from normal kidney tissue, GFP-HUVEC). Put plainly: Normal kidney-on-a-chip, TGF-β stimulation: CCK8 and α-SMA immunofluorescence and blood vessels. As to conditions: TGF-β 5 ng/ml, 24 hours. As to the method:
(§1) Specifically, vascular endothelial cells (GFP-HUVEC) at 2000×10^4/ml and fibrin gel at 10 mg/ml were seeded in the vascular endothelial cell region (yellow region in FIG. 12B, Gel A) of the interstitium culture part of the kidney-on-a-chip manufactured above as 1 in FIG. 12C and cultured at room temperature for 2 to 3 minutes. Next, primary human renal fibroblasts derived from a patient with renal failure at 400×10^4/ml and fibrin gel at 10 mg/ml were seeded in the renal fibroblast region (red region in FIG. 12B, Gel C) of the interstitium culture part of the kidney-on-a-chip manufactured above as 2 in FIG. 12C and cultured at room temperature for 2 to 3 minutes. Afterwards, 5 to 10 μl of the human renal tubular epithelial cell (Human Kidney-2 cell, HK-2 cell) suspension at 300×10^4/ml was seeded in the renal tubule culture part (blue region in FIG. 12B, Gel B) of the kidney-on-a-chip as 3 in FIG. 12C, tilted 90° in the desired direction (upward in this experiment), and cultured at 37° C. for 30 minutes. After culture, each region of the kidney-on-a-chip was filled with 150 μl of the same medium as that in A. of Example 2-2. The renal tubular epithelial cells, vascular endothelial cells, renal fibroblasts and the like were seeded, cultured for 3 days, then treated with TGF-β at 5 ng/ml and TGF-β at 5 ng/ml and a TGF-β inhibitor at 10 μM, respectively, and reacted for 24 hours.
The following immunofluorescence staining was performed to examine whether the kidney-on-a-chip manufactured above normally mimics a living body. Cells in each of the renal tubule culture part and interstitium culture part of the kidney-on-a-chip were fixed with 4% paraformaldehyde fixative (Biosesang, #P2031) at room temperature for 20 minutes, washed with 1×PBS, then treated with 0.2% Triton-X (Sigma, #T9284), and cultured at room temperature for 20 minutes. The cells were then treated with 3% BSA, reacted at room temperature for 40 minutes, and then washed with 1×PBS. […]

The test system of assay [5] is renal tubular epithelial cells (HK-2 cells) in renal fibrosis-on-a-chip. The assay can be described thus: Renal fibrosis-on-a-chip: CCK8 and α-SMA immunofluorescence in renal tubule culture part. As to conditions: 24 hours. As to the method: as §1
The following immunofluorescence staining was performed to examine whether the kidney-on-a-chip manufactured above normally mimics a living body. Cells in each of the renal tubule culture part and interstitium culture part of the kidney-on-a-chip were fixed with 4% paraformaldehyde fixative (Biosesang, #P2031) at room temperature for 20 minutes, washed with 1×PBS, then treated with 0.2% Triton-X (Sigma, #T9284), and cultured at room temperature for 20 minutes. The cells were then treated with 3% BSA, reacted at room temperature for 40 minutes, and then washed with 1×PBS. Next, the cells were treated with primary antibodies (α-SMA antibody (diluted at 1:100) for renal fibroblasts and cytokeratin 8 (CCK8) antibody (diluted at 1:200) for renal tubular epithelial cells) diluted with 1% BSA, reacted at room temperature for 2 days, and washed again with 1×PBS. After washing, the cells were treated with secondary antibodies against each marker diluted with 1% BSA at 1:100 and the antibody Hoechst diluted with 1% BSA at 1:250, reacted at room temperature for 3 hours, washed again with 1×PBS, and then photographed using a confocal microscope, and the results are illustrated in FIG. 12D. […]

[6] abbreviates: renal tubular epithelial cell region, vs control, FIG. 13A, 13B.
Setting [7] is: renal fibrosis-on-a-chip (Experimental Example 1), renal tubular epithelial cell region, TGF-β 5 ng/ml, vs control, FIG. 13C, 13D.
[8] abbreviates: three renal fibrosis-on-chips (patients GFR >90, 60-90, <60), TGF-β 5 ng/ml alone or with TGF-β inhibitor 10 μM, FIG. 15, 16.

On to transforming growth factor-β [TGF-β], for which the “expression level of KIM-1 in the culture solution” value in assay [1] is reported as “increased”. For the same substance, in assay [2], the “expression level of VEGF” value was “increased”. The “number of thin blood vessels” value in assay [3] (renal fibrosis-on-a-chip (Experimental Example 1), vascular endothelial cell region, TGF-β 5 ng/ml) was “increased”; in assay [4] (vascular endothelial cell region of interstitium culture part), “increased”. Further, in assay [3] (three renal fibrosis-on-chips, TGF-β 5 ng/ml alone or with TGF-β inhibitor 10 μM, FIG. 17A), the “total length of thick blood vessels (50 μm or more)” value was “decreased”. For the same substance, the “diameter of thick blood vessels” value in assay [3] (three renal fibrosis-on-chips, TGF-β 5 ng/ml alone or with TGF-β inhibitor 10 μM, FIG. 17B) is on record as “decreased”. In assay [3] (three renal fibrosis-on-chips, TGF-β 5 ng/ml alone or with TGF-β inhibitor 10 μM, FIG. 18A), the “total length of thin blood vessels (less than 50 μm)” value was “increased”. In addition, the “diameter of thin blood vessels” value in assay [3] (three renal fibrosis-on-chips, TGF-β 5 ng/ml alone or with TGF-β inhibitor 10 μM, FIG. 18B) was “decreased”. Besides, the “expression level of CCK8” value in assay [4] (setting [6]), in assay [5] (setting [7]) and in assay [5] (setting [8]) was “decreased” throughout. Further, the “expression level of α-SMA” value in assay [4] (setting [6]), in assay [5] (setting [7]) and in assay [5] (setting [8]) was “increased” in each case.

Source of the values: patent US20250051732A1, “KIDNEY-ON-A-CHIP COMPRISING RENAL TUBULE CULTURE PART AND INTERSTITIUM CULTURE PART” (Seoul National University Hospital, priority 2021, published 2025).
